Laboratory results as given in ChEMBL document CHEMBL3714766, “Tetrahydroisoquinoline compounds and their use as pyruvate dehydrogenase kinase inhibitors” (2015).

target: Pyruvate dehydrogenase kinase (Homo sapiens, UniProt Q15119+Q15120+Q16654+Q15118); experiment: Binding affinity to pyruvate dehydrogenase kinase (unknown origin) by VER-00160364 probe based fluorescence polarization assay

Compound	IC50 [nM]
O=C(c1ccc2c(c1)CCCN2C(=O)c1ccc(O)cc1O)N1CCCCC1	100
C[C@H]1CCc2cc(C(=O)N(C)Cc3cc4ccccc4[nH]3)ccc2N1C(=O)c1ccc(O)cc1O	100
Nc1ccc2c(c1)CCCN2C(=O)c1ccc(O)cc1O	100
COc1cnc(Cl)nc1-c1ccc2c(c1)CCC(c1cccnc1)N2C(=O)c1ccc(O)cc1O (stereo not drawn)	1000
Cc1cnc(Cl)nc1-c1ccc2c(c1)CCC(c1cccnc1)N2C(=O)c1ccc(O)cc1O (stereo not drawn)	10
CC1CCc2cc(C(=O)N(C)CC(F)(F)F)ccc2N1C(=O)c1ccc(O)cc1O (stereo not drawn)	100
Cc1cc(S(=O)(=O)N2CCCCC2)cnc1-c1ccc2c(c1)CC[C@H](C)N2C(=O)c1ccc(O)cc1O	10
C[C@H]1CCc2cc(C(=O)N(C)Cc3ccc(F)cc3)ccc2N1C(=O)c1ccc(O)cc1O	100
Cc1n[nH]c(C)c1C1CCc2ccccc2N1C(=O)c1ccc(O)cc1O (stereo not drawn)	1000
C[C@H]1CCc2cc(F)ccc2N1C(=O)c1cc(Cl)c(O)cc1O	100
CN(C(=O)c1ccc2c(c1)CCCN2C(=O)c1ccc(O)cc1O)c1cccc(F)c1	100
CCc1cc(C(=O)N2c3ccc(F)cc3CCC2C)c(O)cc1O (stereo not drawn)	10000
O=C(c1ccc(O)cc1O)N1c2ccccc2CCC1c1cccs1 (stereo not drawn)	1000
Cc1cc(S(=O)(=O)NCc2ccccn2)cnc1-c1ccc2c(c1)CC[C@H](C)N2C(=O)c1ccc(O)cc1O	10
C[C@H]1CCc2cc(C(=O)N(C)Cc3ccc[n+](C)c3)ccc2N1C(=O)c1ccc(O)cc1O	100
C[C@H]1CCc2cc(C(=O)N(C)CC(F)(F)F)ccc2N1C(=O)c1ccc(O)cc1O	100
CC1CCc2cc(-c3nccn3C)ccc2N1C(=O)c1cc(Cl)c(O)cc1O (stereo not drawn)	1000
CN(Cc1ccccn1)C(=O)c1ccc2c(c1)CCCN2C(=O)c1ccc(O)cc1O	1000
CN(CC(F)(F)F)C(=O)c1ccc2c(c1)CCCN2C(=O)c1ccc(O)cc1O	1000
C[C@H]1CCc2cc(C(=O)N(C)Cc3ccc4c(ccn4C)c3)ccc2N1C(=O)c1ccc(O)cc1O	100
COc1ccc(CN(C)C(=O)c2ccc3c(c2)CC[C@@H](C)N3C(=O)c2ccc(O)cc2O)cc1	10000

Compound	IC50 [nM]
C[C@H]1CCc2cc(-c3nc(-c4ccccc4)nc4ccccc34)ccc2N1C(=O)c1ccc(O)cc1O	1000
CC1CCc2cc(C(=O)N(C)Cc3cc4ccccc4[nH]3)ccc2N1C(=O)c1ccc(O)cc1O (stereo not drawn)	100
CC1CCc2ccccc2N1C(=O)c1ccc(O)cc1O (stereo not drawn)	100
C[C@@H]1CCc2cc(F)ccc2N1C(=O)c1cc(Cl)c(O)cc1O	10000
C[C@@H]1CCc2ccccc2N1C(=O)c1ccc(O)cc1O	10000
CC1CCc2cc(C(=O)N(C)Cc3nc4ccccc4n3C)ccc2N1C(=O)c1ccc(O)cc1O (stereo not drawn)	100
C[C@H]1CCc2cc(C(=O)N3CCN(C(=O)OC(C)(C)C)CC3)ccc2N1C(=O)c1ccc(O)cc1O	1000
CC(c1cc2ccccc2o1)N(C)C(=O)c1ccc2c(c1)CCC(C)N2C(=O)c1ccc(O)cc1O (stereo not drawn)	100
Cc1cc(S(=O)(=O)NCc2cccnc2)cnc1-c1ccc2c(c1)CC[C@H](C)N2C(=O)c1ccc(O)cc1O	10
CCN(CC)S(=O)(=O)c1ccc2c(c1)CCC(C)N2C(=O)c1ccc(O)cc1O (stereo not drawn)	100
O=C(c1ccc(O)cc1O)N1c2ccccc2CCC1c1ccccn1 (stereo not drawn)	1000
O=C(c1ccc(O)cc1O)N1CCCc2cc(OC(F)(F)F)ccc21	1000
CN(C)C(=O)c1ccc2c(c1)CCCN2C(=O)c1ccc(O)cc1O	100
Cc1cccnc1-c1ccc2c(c1)CCCN2C(=O)c1cc(C(F)(F)F)c(O)cc1O	10000
C[C@H]1CCc2ccccc2N1C(=O)c1cc(Cl)c(O)cc1O	100
Cn1nccc1-c1ccc2c(c1)CCCN2C(=O)c1ccc(O)cc1O	100
COC(=O)c1ccc2c(c1)CCCN2C(=O)c1ccc(O)cc1O	1000
O=C(c1ccc2c(c1)CCCN2C(=O)c1ccc(O)cc1O)N1CCC1	1000
O=C(c1ccc(O)cc1O)N1CCCc2cc(OCc3ccccc3)ccc21	10000
CN(CCN)C(=O)c1ccc2c(c1)CCCN2C(=O)c1ccc(O)cc1O	1000

The remaining lines, values ahead:

IC50 [nM]	Compound
100	Cc1cc(S(=O)(=O)N2CCCC2)cnc1-c1ccc2c(c1)CC[C@H](C)N2C(=O)c1ccc(O)cc1O
10	CC(=O)NCCNS(=O)(=O)c1cnc(-c2ccc3c(c2)CC[C@H](C)N3C(=O)c2ccc(O)cc2O)c(C)c1
1000	Cc1cc2cccc(C)c2nc1-c1ccc2c(c1)CC[C@H](C)N2C(=O)c1ccc(O)cc1O
10	Cc1cc(S(=O)(=O)NCCN(C)C)cnc1-c1ccc2c(c1)CC[C@H](C)N2C(=O)c1ccc(O)cc1O
10	Cc1ncc(C)c(-c2ccc3c(c2)CC[C@H](C)N3C(=O)c2ccc(O)cc2O)n1
100	CC1CCc2cc(-c3ncccc3Cl)ccc2N1C(=O)c1ccc(O)cc1O (stereo not drawn)
10000	C[C@H]1CCc2cc(-c3nc4cc(Cl)ccc4o3)ccc2N1C(=O)c1ccc(O)cc1O
100	Cc1nccn1-c1ccc(-c2ccc3c(c2)CC[C@H](C)N3C(=O)c2ccc(O)cc2O)nn1
1000	C[C@H]1CCc2cc(-c3nc(-c4ccsc4)nc4ccccc34)ccc2N1C(=O)c1ccc(O)cc1O
10	Cc1cc(S(=O)(=O)N(C)C)cnc1-c1ccc2c(c1)CC[C@H](C)N2C(=O)c1ccc(O)cc1O
10000	C[C@H]1CCc2cc(C(=O)O)ccc2N1C(=O)c1ccc(O)cc1O
100	C[C@H]1CCc2cc(-c3ncccc3CO)ccc2N1C(=O)c1ccc(O)cc1O
100	C[C@H]1CCc2cc(-c3ccc(-n4ccnc4)nn3)ccc2N1C(=O)c1ccc(O)cc1O
100	Cc1ccc(C)c(-c2ccc3c(c2)CC[C@H](C)N3C(=O)c2ccc(O)cc2O)n1
100	C[C@H]1CCc2cc(C(=O)N(C)C)ccc2N1C(=O)c1ccc(O)cc1O
100	C[C@H]1CCc2cc(-c3nc(Cl)nc4c3COCC4)ccc2N1C(=O)c1ccc(O)cc1O
1000	Cc1c(-c2ccc3c(c2)CC[C@H](C)N3C(=O)c2ccc(O)cc2O)ccc2[nH]ncc12
1000	COc1cc(-c2ccc3c(c2)CC[C@H](C)N3C(=O)c2ccc(O)cc2O)ncn1
100	Cc1cccnc1-c1ccc2c(c1)CC[C@H](C)N2C(=O)c1ccc(O)cc1O
100	Cc1cn(-c2ccc(-c3ccc4c(c3)CC[C@H](C)N4C(=O)c3ccc(O)cc3O)nn2)cn1
100	C[C@H]1CCc2cc(-c3nc4ccc(Cl)cc4cc3CO)ccc2N1C(=O)c1ccc(O)cc1O
100	CC1CCc2cc(-c3nccn3C)ccc2N1C(=O)c1ccc(O)cc1O (stereo not drawn)
10	Cc1cc(S(=O)(=O)NCCCC(N)=O)cnc1-c1ccc2c(c1)CC[C@H](C)N2C(=O)c1ccc(O)cc1O
10	Cc1cnc(Cl)nc1-c1ccc2c(c1)CCC(C)N2C(=O)c1ccc(O)cc1O (stereo not drawn)
100	C[C@H]1CCc2cc(-c3ncnc4ccc(Cl)cc34)ccc2N1C(=O)c1ccc(O)cc1O
100	C[C@H]1CCc2cc(-c3nncc4ccccc34)ccc2N1C(=O)c1ccc(O)cc1O

IC50 [nM]	Compound
100	C[C@H]1CCc2cc(-c3ccc(N)nn3)ccc2N1C(=O)c1ccc(O)cc1O
1000	C[C@H]1CCc2cc(-c3ccc(Cl)cc3Cl)ccc2N1C(=O)c1ccc(O)cc1O
100	C[C@H]1CCc2cc(-c3ccnc(N)n3)ccc2N1C(=O)c1ccc(O)cc1O
100	COc1cc(-c2ccc3c(c2)CC[C@H](C)N3C(=O)c2ccc(O)cc2O)cnc1OC
10	Cc1cc(Cl)nnc1-c1ccc2c(c1)CC[C@H](C)N2C(=O)c1ccc(O)cc1O
1000	CSc1nc2c(c(-c3ccc4c(c3)CC[C@H](C)N4C(=O)c3ccc(O)cc3O)n1)CCC2
100	Cc1cc(-c2ccc3c(c2)CC[C@H](C)N3C(=O)c2ccc(O)cc2O)cnc1N
1000	Cc1cnc(NCCN(C)C)nc1-c1ccc2c(c1)CC[C@H](C)N2C(=O)c1ccc(O)cc1O
100	C[C@H]1CCc2cc(-c3ccncc3C(F)(F)F)ccc2N1C(=O)c1ccc(O)cc1O
1000	C[C@H]1CCc2cc(-c3ccc(NC4CC4)nn3)ccc2N1C(=O)c1ccc(O)cc1O
100	Cc1cc(CNc2ccc(-c3ccc4c(c3)CC[C@H](C)N4C(=O)c3ccc(O)cc3O)c(C)n2)on1
1000	CSc1nc(Cl)cc(-c2ccc3c(c2)CC[C@H](C)N3C(=O)c2ccc(O)cc2O)n1
100	Cc1nc(NS(C)(=O)=O)ccc1-c1ccc2c(c1)CC[C@H](C)N2C(=O)c1ccc(O)cc1O
100	Cc1nc(N)ccc1-c1ccc2c(c1)CC[C@H](C)N2C(=O)c1ccc(O)cc1O
10	Cc1cccnc1-c1ccc2c(c1)CCC(c1cccnc1)N2C(=O)c1ccc(O)cc1O (stereo not drawn)
100	Cc1cc2ccc(F)cc2nc1-c1ccc2c(c1)CC[C@H](C)N2C(=O)c1ccc(O)cc1O
100	Cc1cnc(C)c(-c2ccc3c(c2)CC[C@H](C)N3C(=O)c2ccc(O)cc2O)n1
100	C[C@H]1CCc2cc(-c3cc4occc4cn3)ccc2N1C(=O)c1ccc(O)cc1O
100	CC1CCc2cc(-c3ncccc3C#N)ccc2N1C(=O)c1ccc(O)cc1O (stereo not drawn)
1000	C[C@H]1CCc2cc(-c3nccc4occc34)ccc2N1C(=O)c1ccc(O)cc1O
100	Cc1ccc[n+]([O-])c1-c1ccc2c(c1)CC[C@H](C)N2C(=O)c1ccc(O)cc1O
1000	Cc1cc(-c2ccc3c(c2)CC[C@H](C)N3C(=O)c2ccc(O)cc2O)cnc1Cl
100	COCCNc1ncc(C)c(-c2ccc3c(c2)CC[C@H](C)N3C(=O)c2ccc(O)cc2O)n1
1000	Cc1nc(C)c(-c2ccc3c(c2)CC[C@H](C)N3C(=O)c2ccc(O)cc2O)s1
100	Cc1cccnc1-c1ccc2c(c1)CCC(C)N2C(=O)c1cc(Cl)c(O)cc1O (stereo not drawn)
100	Cc1nc(-c2ccc3c(c2)CC[C@H](C)N3C(=O)c2ccc(O)cc2O)c2ccccc2n1
